Results on ten compounds are retold here after US20230139171A1 (SITA Information Networking Computing UK Limited, priority 2019, published 2023).

Bounds are passed on as bounds.

Holding throughout (format): cell-based
In one experiment the target is T1, human TLR9 (Homo sapiens, UniProt Q9NR96).
T1 construct: host or cells: HEK-Blue cells
T1 sequence (Q9NR96 26-1032): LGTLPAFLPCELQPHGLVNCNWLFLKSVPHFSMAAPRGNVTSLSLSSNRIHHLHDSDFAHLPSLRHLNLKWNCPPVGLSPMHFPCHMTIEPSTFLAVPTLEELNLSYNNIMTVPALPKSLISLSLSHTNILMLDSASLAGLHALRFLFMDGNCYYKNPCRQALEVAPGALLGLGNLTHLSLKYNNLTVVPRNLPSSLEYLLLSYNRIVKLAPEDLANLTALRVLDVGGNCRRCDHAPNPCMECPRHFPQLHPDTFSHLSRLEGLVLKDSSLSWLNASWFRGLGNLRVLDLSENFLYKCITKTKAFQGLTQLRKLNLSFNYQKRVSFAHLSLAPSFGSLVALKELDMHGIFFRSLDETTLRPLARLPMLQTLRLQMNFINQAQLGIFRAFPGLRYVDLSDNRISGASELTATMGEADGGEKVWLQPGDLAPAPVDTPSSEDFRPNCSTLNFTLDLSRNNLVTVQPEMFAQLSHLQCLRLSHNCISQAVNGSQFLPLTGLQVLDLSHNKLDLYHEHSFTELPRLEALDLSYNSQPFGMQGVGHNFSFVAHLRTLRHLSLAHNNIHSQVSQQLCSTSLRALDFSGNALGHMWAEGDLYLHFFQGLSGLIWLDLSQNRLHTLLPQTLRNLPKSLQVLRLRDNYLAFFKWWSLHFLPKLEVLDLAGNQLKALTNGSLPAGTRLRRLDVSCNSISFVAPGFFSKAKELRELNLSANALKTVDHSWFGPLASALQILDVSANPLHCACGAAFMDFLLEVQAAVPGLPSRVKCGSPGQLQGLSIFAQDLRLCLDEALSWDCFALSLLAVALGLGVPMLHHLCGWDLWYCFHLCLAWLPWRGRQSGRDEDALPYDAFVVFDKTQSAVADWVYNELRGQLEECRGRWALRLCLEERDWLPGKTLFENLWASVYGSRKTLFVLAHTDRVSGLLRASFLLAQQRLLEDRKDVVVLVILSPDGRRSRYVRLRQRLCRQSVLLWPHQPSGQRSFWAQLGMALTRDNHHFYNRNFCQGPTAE
The experiment is described as follows: TLR9 inhibition reporter assay (HEK-Blue cells, SEAP reporter, ODN2006 stimulation). As to conditions: HEK-Blue cells overexpressing human TLR9, SEAP reporter, ODN2006 5 nM. The procedure, abridged:
(§1)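 Screening used HEK-Blue cells overexpressing one human TLR (7, 8 or 9) and an IFN-β minimal promoter–NF-κB/AP-1 SEAP construct. Stimulation lasted 22 h at 37 °C with receptor-specific agonist: gardiquimod, R848 or ODN2006 at 7.5 μM, 15.9 μM and 5 nM.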
In general terms: Reporter assays use an easily measured gene product as a stand-in for the process of interest.

The target of a further experiment is T2, human TLR8 (Homo sapiens, UniProt Q9NR97).
T2 construct: host or cells: HEK-Blue cells
T2 sequence (Q9NR97 27-1041): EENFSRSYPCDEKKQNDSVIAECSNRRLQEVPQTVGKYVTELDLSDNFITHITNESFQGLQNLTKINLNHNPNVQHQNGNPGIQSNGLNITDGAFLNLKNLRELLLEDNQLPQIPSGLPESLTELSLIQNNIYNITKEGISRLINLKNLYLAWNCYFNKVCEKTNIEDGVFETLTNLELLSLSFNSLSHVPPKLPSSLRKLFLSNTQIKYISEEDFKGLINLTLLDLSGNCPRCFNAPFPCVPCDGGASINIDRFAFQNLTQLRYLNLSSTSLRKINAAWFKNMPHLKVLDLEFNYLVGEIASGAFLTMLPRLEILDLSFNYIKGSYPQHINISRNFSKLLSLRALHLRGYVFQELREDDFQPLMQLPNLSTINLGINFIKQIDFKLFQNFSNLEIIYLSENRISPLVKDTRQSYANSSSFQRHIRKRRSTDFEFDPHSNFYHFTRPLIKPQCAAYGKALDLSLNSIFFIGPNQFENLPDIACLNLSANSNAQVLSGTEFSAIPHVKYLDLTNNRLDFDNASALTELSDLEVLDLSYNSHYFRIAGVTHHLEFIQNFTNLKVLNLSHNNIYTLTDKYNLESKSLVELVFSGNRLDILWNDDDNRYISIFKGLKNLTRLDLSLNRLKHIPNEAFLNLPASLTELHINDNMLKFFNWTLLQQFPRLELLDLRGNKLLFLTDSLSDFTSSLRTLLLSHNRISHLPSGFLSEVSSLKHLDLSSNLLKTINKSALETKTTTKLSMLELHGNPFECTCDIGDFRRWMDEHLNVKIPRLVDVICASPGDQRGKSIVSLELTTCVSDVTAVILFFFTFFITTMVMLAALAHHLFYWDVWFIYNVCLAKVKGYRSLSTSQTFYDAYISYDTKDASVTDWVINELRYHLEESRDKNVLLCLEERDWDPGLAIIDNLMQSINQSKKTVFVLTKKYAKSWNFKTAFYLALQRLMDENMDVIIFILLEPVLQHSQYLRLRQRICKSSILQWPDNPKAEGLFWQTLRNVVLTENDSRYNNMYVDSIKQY
The experiment is described as follows: TLR8 inhibition reporter assay (HEK-Blue cells, SEAP reporter, R848 stimulation). Particulars: HEK-Blue cells overexpressing human TLR8, SEAP reporter, R848 15.9 μM; read-out: TLR8 IC50. The procedure, abridged:
as §1

Another experiment addresses T3, human TLR7 (Homo sapiens, UniProt Q9NYK1).
T3 construct: host or cells: HEK-Blue cells
T3 sequence (Q9NYK1 27-1049): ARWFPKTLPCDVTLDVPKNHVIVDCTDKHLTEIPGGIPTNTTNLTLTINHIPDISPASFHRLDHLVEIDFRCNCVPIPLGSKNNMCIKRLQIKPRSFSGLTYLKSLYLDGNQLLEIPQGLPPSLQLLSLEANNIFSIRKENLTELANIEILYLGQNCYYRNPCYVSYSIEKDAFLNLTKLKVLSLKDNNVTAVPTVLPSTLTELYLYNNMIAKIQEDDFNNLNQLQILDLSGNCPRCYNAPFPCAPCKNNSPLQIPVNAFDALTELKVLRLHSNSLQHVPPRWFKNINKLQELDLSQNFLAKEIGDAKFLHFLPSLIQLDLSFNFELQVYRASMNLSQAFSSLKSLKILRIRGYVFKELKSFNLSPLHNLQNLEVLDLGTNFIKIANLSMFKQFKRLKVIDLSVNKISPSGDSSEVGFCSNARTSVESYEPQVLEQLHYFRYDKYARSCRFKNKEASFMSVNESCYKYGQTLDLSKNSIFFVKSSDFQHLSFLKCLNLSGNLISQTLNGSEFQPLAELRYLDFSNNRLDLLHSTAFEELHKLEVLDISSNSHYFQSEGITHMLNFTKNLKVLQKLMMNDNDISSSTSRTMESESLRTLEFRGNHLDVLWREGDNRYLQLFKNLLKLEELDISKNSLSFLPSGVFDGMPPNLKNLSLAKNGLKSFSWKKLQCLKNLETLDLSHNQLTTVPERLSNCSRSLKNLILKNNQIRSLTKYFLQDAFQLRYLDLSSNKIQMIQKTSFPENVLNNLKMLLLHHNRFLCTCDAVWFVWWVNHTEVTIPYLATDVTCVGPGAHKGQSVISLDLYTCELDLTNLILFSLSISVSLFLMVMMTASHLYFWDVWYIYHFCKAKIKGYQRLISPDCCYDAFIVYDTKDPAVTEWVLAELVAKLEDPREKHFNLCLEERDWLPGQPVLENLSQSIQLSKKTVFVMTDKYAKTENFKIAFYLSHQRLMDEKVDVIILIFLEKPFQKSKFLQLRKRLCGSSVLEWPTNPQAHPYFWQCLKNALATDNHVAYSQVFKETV
The experiment is described as follows: TLR7 inhibition reporter assay (HEK-Blue cells, SEAP reporter, gardiquimod stimulation). Particulars: HEK-Blue cells overexpressing human TLR7, SEAP reporter, gardiquimod 7.5 μM; read-out: TLR7 IC50. The procedure, abridged:
as §1

A word on the IC50: it is the concentration needed to halve the response being measured. With `Cc1c(-c2[nH]c3sc(C4CCC(N5CC6(CCOCC6)C5)CC4)nc3c2C(C)C)cn2ncnc2c1C` (single isomer, unassigned) [Example 239, 2-(4-(5-(7,8-dimethyl-[1,2,4]triazolo[1,5-a]pyridin-6-yl)-6-isopropyl-4H-pyrrolo[3,2-d]thiazol-2-yl)cyclohexyl)-7-oxa-2-azaspiro[3.5]nonane], the half-maximal inhibitory concentration (IC50) on human TLR9 was determined as 9920 nM; on human TLR8 it was 0.27 nM; on human TLR7 it was 1.96 nM.
On the same counts, the results for `Cc1c(-c2[nH]c3sc(C4CCC(N5CC6(CCOCC6)C5)CC4)nc3c2C(C)C)cn2ncnc2c1C` (single isomer, unassigned) [Example 240, 2-(4-(5-(7,8-dimethyl-[1,2,4]triazolo[1,5-a]pyridin-6-yl)-6-isopropyl-4H-pyrrolo[3,2-d]thiazol-2-yl)cyclohexyl)-7-oxa-2-azaspiro[3.5]nonane] are 6230 nM, 2.82 nM and 3.72 nM.
For `Cc1c(-c2[nH]c3sc(C4CCC(NC5COC5)CC4)nc3c2C(C)C)cn(C)c(=O)c1C` (single isomer, unassigned) [Example 241, 5-(6-isopropyl-2-(4-(oxetan-3-ylamino)cyclohexyl)-4H-pyrrolo[3,2-d]thiazol-5-yl)-1,3,4-trimethylpyridin-2(1H)-one] the same measures were > 50000 nM, 3.19 nM and 8.06 nM.
On the same counts, the results for `Cc1c(-c2[nH]c3sc(C4CCC(NC5COC5)CC4)nc3c2C(C)C)cn(C)c(=O)c1C` (single isomer, unassigned) [Example 242, 5-(6-isopropyl-2-(4-(oxetan-3-ylamino)cyclohexyl)-4H-pyrrolo[3,2-d]thiazol-5-yl)-1,3,4-trimethylpyridin-2(1H)-one] are > 50000 nM, 16.1 nM and 47.1 nM.
For the compound `COC(C)(C)CNC1CCC(c2nc3c(C(C)C)c(-c4cn(C)c(=O)c(C)c4C)[nH]c3s2)CC1` (single isomer, unassigned) [Example 243, 5-(6-isopropyl-2-(4-((2-methoxy-2-methylpropyl)amino)cyclohexyl)-4H-pyrrolo[3,2-d]thiazol-5-yl)-1,3,4-trimethylpyridin-2(1H)-one], the figures for the 50% inhibitory concentration (IC50) against human TLR9, at human TLR8 and at human TLR7 were 29800 nM, 2.1 nM and 16.4 nM, respectively.
As to `COC(C)(C)CNC1CCC(c2nc3c(C(C)C)c(-c4cn(C)c(=O)c(C)c4C)[nH]c3s2)CC1` (single isomer, unassigned) [Example 244, 5-(6-isopropyl-2-(4-((2-methoxy-2-methylpropyl)amino)cyclohexyl)-4H-pyrrolo[3,2-d]thiazol-5-yl)-1,3,4-trimethylpyridin-2(1H)-one], the IC50 on human TLR9 is 25300 nM; at human TLR8 it was 17.5 nM; on human TLR7, 44 nM.
For `Cc1c(-c2[nH]c3sc(C4CCC(N5CC6(COC6)C5)CC4)nc3c2C(C)C)cn(C)c(=O)c1C` (single isomer, unassigned) [Example 245, 5-(2-(4-(2-oxa-6-azaspiro[3.3]heptan-6-yl)cyclohexyl)-6-isopropyl-4H-pyrrolo[3,2-d]thiazol-5-yl)-1,3,4-trimethylpyridin-2(1H)-one] the same measures were 22900 nM, 0.65 nM and 2.6 nM.
For `Cc1c(-c2[nH]c3sc(C4CCC(N5CC6(COC6)C5)CC4)nc3c2C(C)C)cn(C)c(=O)c1C` (single isomer, unassigned) [Example 246, 5-(2-(4-(2-oxa-6-azaspiro[3.3]heptan-6-yl)cyclohexyl)-6-isopropyl-4H-pyrrolo[3,2-d]thiazol-5-yl)-1,3,4-trimethylpyridin-2(1H)-one] the same measures were > 50000 nM, 154 nM and 60.8 nM.
On the same counts, the results for `CCN(C)C1CCC(c2nc3c(C(C)C)c(-c4cn(C)c(=O)c(C)c4C)[nH]c3s2)CC1` (single isomer, unassigned) [Example 247, 5-(2-(4-(ethyl(methyl)amino)cyclohexyl)-6-isopropyl-4H-pyrrolo[3,2-d]thiazol-5-yl)-1,3,4-trimethylpyridin-2(1H)-one] are 42500 nM, 4.42 nM and 5.87 nM.
Turning to `CCN(C)C1CCC(c2nc3c(C(C)C)c(-c4cn(C)c(=O)c(C)c4C)[nH]c3s2)CC1` (single isomer, unassigned) [Example 248, 5-(2-(4-(ethyl(methyl)amino)cyclohexyl)-6-isopropyl-4H-pyrrolo[3,2-d]thiazol-5-yl)-1,3,4-trimethylpyridin-2(1H)-one], the IC50 on human TLR9 was determined as 14000 nM; on human TLR8, 12 nM; at human TLR7 it was 8.33 nM.
